Measured values reported in the NIST ThermoML archive (doi:10.1016/j.fluid.2012.06.002).
Numbers after ± are expanded uncertainties.

Experiment: wn = mass fraction of the nth substance listed
Conditions: 101 kPa, Liquid, pycnometer

`N.O=P(O)(O)O` [ammonium dihydrogen phosphate] + O gave a mass density (298.15 K, w1 = 0.293) of 1164 ± 1 kg/m3 and a mass density (328.15 K, w1 = 0.436) of 1258 ± 1 kg/m3.

Work on `NC(N)=O.O=P(O)(O)O` [urea phosphate] + O yielded a mass density (298.15 K, w1 = 0.538) of 1260 ± 1 kg/m3 and a mass density (328.15 K, w1 = 0.734) of 1359 ± 2 kg/m3.
